Assay results reported in US20110009462A1, “STABLE, SYNERGISTIC MIXTURES” (LANXESS DEUTSCHLAND GMBH, priority 2007, published 2011).

What was measured:
Type in all cases: cell-based
Corynebacterium = experiment: MIC and synergism (Kull) against Corynebacterium, Landy minimal medium pH 9
Procedure: (§1) The synergism was determined by the method described by Kull et al. (F. C. Kull, P. C. Eismann, H. D. Sylvestrowicz, R. L. Mayer, Applied Microbiology 9, 538 to 541, 1961). The following relationships apply:
(§2) [formula] • Qa=amount of substance A • Qb=amount of substance B • MIC(A)=concentration of substance A which prevents microbial growth • MIC(B)=concentration of substance B which prevents microbial growth • MIC(A+B)=concentration of substance A+B which prevents microbial growth • SI=synergistic index, where SI=1 means additive effect • SI>1 means antagonism • SI<1 means synergism
(§3) Various concentrations of GDA and MIT and mixtures of the two abovementioned active substances were tested against the bacterium Corynebacterium. The incubation is performed in Landy minimal medium at pH 9 and 26° C. The growth of Corynebacterium was compared at the various active substance concentrations with the growth without active substance. The lowest concentration at which growth was no longer detected is stated as the minimum inhibitory concentration (MIC).

Pseudomonas fluorescens [1] = experiment: MIC and synergism (Kull) against Pseudomonas fluorescens, Landy minimal medium pH 9
Procedure: as §1, §2
as §3, with “Pseudomonas fluorescens.” for “Corynebacterium.”, “Pseudomonas fluorescens” for “Corynebacterium”

Rhodotorula rubra = experiment: MIC and synergism (Kull) against yeast Rhodotorula rubra, malt extract liquid medium
Procedure: as §1, §2
as §3, with “yeast Rhodotorula rubra.” for “bacterium Corynebacterium.”, “malt extract liquid” for “Landy minimal”, “at” for “at pH 9 and”, “Rhodotorula rubra” for “Corynebacterium”

Pseudomonas fluorescens [2] = experiment: MIC and synergism (Kull) against Pseudomonas fluorescens, Landy minimal medium pH 7
Procedure: as §1, §2
as §3, with “Pseudomonas fluorescens.” for “Corynebacterium.”, “7” for “9”, “Pseudomonas fluorescens” for “Corynebacterium”, “at” for “at the”

[3] = Landy minimal medium, pH 9, 26° C.

MIC (Corynebacterium; [3]) [ppm]	MIC (Pseudomonas fluorescens [1]; [3]) [ppm]	MIC (Rhodotorula rubra; Rhodotorula rubra, malt extract liquid medium, 26° C.) [ppm]	MIC (Pseudomonas fluorescens [2]; Landy minimal medium, pH 7, 26° C.) [ppm]	SMILES	MIC (Corynebacterium; pH 9) [µg/mL]	MIC (Pseudomonas fluorescens [1]; pH 9) [µg/mL]	MIC (Rhodotorula rubra; Rhodotorula) [µg/mL]	MIC (Pseudomonas fluorescens [2]; pH 7) [µg/mL]
10	50	100	20	O=CCCCC=O [GDA, glutardialdehyde]	–	–	–	–
–	–	–	–	Cn1sccc1=O [MIT, 2-methyl-2H-isothiazol-3-one]	5	20	50	5
